This assay concerns FLK-1 receptor. Kind of assay: FLK-1 Assay (cellular/catalytic ELISA, VEGF-stimulated phosphotyrosine). The arrangement: concentration or dose not given beside the values. The class given is cell-based. Summed up: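 NIH3T3 C7#3 cells engineered to express Flk-1 were serum-starved overnight (0.1% FBS), then exposed to compound for 2 h at 37 °C (final dilution 1:200, 0.5% DMSO) before VEGF stimulation. Lysates captured on anti-FLK-1 antiserum plates; phosphotyrosine detected by UB40 antibody/POD-ABTS ELISA versus untreated controls.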
In general terms: ELISA stands for enzyme-linked immunosorbent assay.

SMILES strings stand for the structures.

For `CCN(CC)c1ccc(C=C2C(=O)Nc3ccc(CCCl)cc32)c(O)c1` [10734/G05], the “Flk Kinase % Inhibition (P.110)” value is given as 7.4%.

Regarding `O=C1Nc2ccc(CCCl)cc2C1=Cc1ccc([N+](=O)[O-])cc1` [10734/G06], the “Flk Kinase % Inhibition (P.110)” value amounted to 16.5%. For `O=C1Nc2ccc(CCCl)cc2C1=Cc1cc(Br)cc(Br)c1O` [10734/G07] the value was 21.9%.

As to `O=C1Nc2ccc(CCCl)cc2C1=Cc1cccc(F)c1O` [10734/G08], the “Flk Kinase % Inhibition (P.110)” value was determined as 11.6%. For `O=C1Nc2ccc(CCCl)cc2C1=Cc1ccc(O)c(Br)c1` [10734/G09] the value was 8.5%. For `CC(C)(C)c1ccc(C=C2C(=O)Nc3ccc(CCCl)cc32)cc1` [10734/G10] the value was 10.8%. For `O=C1Nc2ccc(CCCl)cc2C1=Cc1ccc(Br)s1` [10734/G11] the value was 8.7%; for `CCOc1cccc(C=C2C(=O)Nc3c(Br)cc(Br)c(C)c32)c1O` [10734/H02], 0.5%.

As to `Cc1c(Br)cc(Br)c2c1C(=Cc1cc(Cl)cc(Cl)c1O)C(=O)N2` [10734/H03], the “Flk Kinase % Inhibition (P.110)” value was 4.6%. For `Cc1c(Br)cc(Br)c2c1C(=Cc1cc(Cl)ccc1O)C(=O)N2` [10734/H04] the value was −1.3%.

These data come from US20020026053A1, “Novel 3-(substituted) -2- indolinones compounds and use thereof as inhibitors of protein kinase activity” (priority 1997, published 2002).
